Measurements as given in patent US20140308313A1 (priority 2006, published 2014).

Test system: IgG1 and IgG2a antibodies to TT
Parameters: species or system mice
Conditions: mouse, in vivo

## CCCCCCCCCCCCCCCCCCCCCCCCCC(=O)N[C@@H](CO[C@H]1OC(CO)[C@H](O)C(O)C1O)[C@H](O)[C@@H](O)CCCCCCCCCCCCCC (stereo partly drawn) [α-GC, α-galactosylceramide]
  production of IgG1 and IgG2a antibodies compared to CFA, CpG, MF59 and Alum: overall as potent as the above benchmark adjuvants
